Laboratory results: ChEMBL document CHEMBL1201862, “PubChem BioAssay data set” (2004)
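Five compound concentrations were applied to cells in 96-well plates for 48 hours; endpoints were derived by simple linear interpolation of the resulting dose-response curve. Here, GI50 denotes the concentration required for 50% inhibition of growth.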 The source made the active and inactive calls. Rule as the data show it: active = GI50 up to about 1.1 µM and inactive = higher.

Experiments:
Assay in all cases: NCI anticancer screen, dose series, 48 h
[1] = test system: MDA-N
[2] = test system: TK-10
[3] = test system: SNB-75
[4] = test system: MDA-MB-435
[5] = test system: LOX IMVI
[6] = test system: NCI-H522
[7] = test system: OVCAR-8
[8] = test system: UACC-62
[9] = test system: Hs-578T
[10] = test system: NCI-H226
[11] = test system: SR
[12] = test system: SF-295
[13] = test system: Malme-3M
[14] = test system: OVCAR-4
[15] = test system: OVCAR-3
[16] = test system: HCC 2998
[17] = test system: NCI-H23
[18] = test system: UO-31
[19] = test system: RPMI-8226
[20] = test system: 786-0

Measured: GI50

CC(=O)OCC1OC(n2cc(F)c(=O)[nH]c2=O)C(OC(C)=O)C1OC(C)=O (stereo not given)
inactive: [1] 11.5 µM | [2] > 100 µM | [3] 23.6 µM | [4] 17 µM | [5] 5.9 µM | [6] 16.6 µM | [7] 26 µM | [8] 17.5 µM | [9] > 59.3 µM | [10] 59.8 µM | [11] 6.73 µM | [12] 52.7 µM | [13] 5.05 µM | [14] 30.3 µM | [15] 23.3 µM | [16] 7.1 µM | [17] 75.2 µM | [18] 11.8 µM | [19] 19.8 µM | [20] 12.2 µM

Cn1c2c(c3ccccc31)CCN(CCCCN1CCN(c3ccccc3)CC1)C2=O
inactive: [1] 21.6 µM | [2] 45 µM | [3] 44.8 µM | [4] 17.5 µM | [5] 12.8 µM | [6] 42 µM | [7] 47.6 µM | [8] 31.8 µM | [9] 12.4 µM | [10] > 41.8 µM | [11] 8.93 µM | [12] > 88.3 µM | [13] 8.04 µM | [14] 42.1 µM | [15] 57.3 µM | [16] 5.62 µM | [17] 35.6 µM | [18] 17.3 µM | [19] 17 µM | [20] 29.6 µM

CCc1nc2cc3cccnc3c(Cl)c2[nH]c1=O
inactive: [1] > 100 µM | [2] 89.5 µM | [3] 17.8 µM | [4] > 100 µM | [5] > 100 µM | [6] > 100 µM | [7] > 100 µM | [8] > 100 µM | [9] > 100 µM | [10] > 100 µM | [11] > 100 µM | [12] > 100 µM | [13] > 100 µM | [14] > 100 µM | [15] > 100 µM | [16] > 100 µM | [17] > 100 µM | [18] > 100 µM | [19] > 100 µM | [20] 79.8 µM

COC(O)C(=O)c1c2c(cc3c1CCC3)CCCC2 (stereo not given)
inactive: [1] 13 µM | [2] 16.3 µM | [3] 8.17 µM | [4] 17.4 µM | [5] 1.99 µM | [6] 3.84 µM | [7] 7.87 µM | [8] 3.47 µM | [9] 4.22 µM | [10] 16.5 µM | [11] 4 µM | [12] 10.5 µM | [13] 14 µM | [14] 7.31 µM | [15] 4.65 µM | [16] 1.97 µM | [17] 10.7 µM | [18] 17.7 µM | [19] 2.46 µM | [20] 14.1 µM

NC12Oc3cc(O)cc(O)c3C1(c1ccc(Cl)cc1)c1c(O)cc(O)cc1O2 (stereo not given)
inactive: [1] 39.9 µM | [2] 66.8 µM | [3] 89.1 µM | [4] 46.8 µM | [5] 57.4 µM | [6] 24.7 µM | [7] > 100 µM | [8] 42 µM | [9] 28.8 µM | [10] > 100 µM | [11] 22.5 µM | [12] 96.8 µM | [13] 40.6 µM | [14] 27.5 µM | [15] 47.6 µM | [16] > 100 µM | [17] 46.9 µM | [18] 92.5 µM | [19] 33.4 µM | [20] 61.8 µM

O=S(=O)(Cc1nc2ccccc2s1)c1nc2ccccc2s1
inactive: [1] 15.5 µM | [2] 20 µM | [3] 18.3 µM | [4] 15.2 µM | [5] 10 µM | [6] 15.5 µM | [7] 19.4 µM | [8] 16 µM | [9] 19.9 µM | [10] 26.5 µM | [11] 4.72 µM | [12] 26.2 µM | [13] 11.3 µM | [14] 16.9 µM | [15] 14.4 µM | [16] 16.4 µM | [17] 15.6 µM | [18] 16.7 µM | [19] 16 µM | [20] 17.4 µM

CC(=O)/C=C/C1=C(C)CCCC1(C)CC(C)C (stereo not given)
inactive: [1] 28.9 µM | [2] > 100 µM | [3] 21.6 µM | [4] 32.5 µM | [5] 18.6 µM | [6] 18.4 µM | [7] 31.3 µM | [8] 22.4 µM | [9] 32.7 µM | [10] 33.5 µM | [11] 16 µM | [12] 34.2 µM | [13] 30.6 µM | [14] 63.8 µM | [15] 26.5 µM | [16] 17.6 µM | [17] 24.8 µM | [18] 36.9 µM | [19] 13.7 µM | [20] 19 µM
